{
  "source": "patent US20050257279A1",
  "about": "“Agouti-related protein deficient cells, non-human transgenic animals and methods of selecting compounds which regulate energy metabolism” (priority 2002, published 2005)",
  "key": {"[1]": {"assay": "4-hour light-phase food intake in mice", "assay_type": "in vivo", "details": "human ghrelin 3 μmole/kg i.p.", "description": "Mice were individually housed at approximately one month of age. Regular mouse chow (Teklad 7012: 5.67% kcal from fat; 3.41 kcal/g, Harlan Teklad) was provided as pellet food in wire cage tops containing food hoppers.\nFood intake values were reported as means ± standard errors of the means, and analyzed by the two tailed, unpaired Student t test. P values of <0.05 were reported as significant."}, "[2]": {"test_system": "primary cultures of rat anterior pituitary cells", "assay": "Rat pituitary growth hormone (GH) release", "assay_type": "cell-based", "details": "15 min incubation", "protocol": "Rat Pituitary Growth Hormone (GH) Release: Compound functional activity was evaluated by measuring growth hormone secretion from primary cultures of rat anterior pituitary cells (Small, et al., (1998) Regulatory Peptides 75-76 and 301-307). Cells were isolated from rat pituitaries by enzymatic digestion with 250 μg/mL DNAse 1 and 0.5% trypsin in Hanks' balanced salt solution. The cells were suspended in culture medium and adjusted to a concentration of 1.5×10^5 cells/ml and 1.0 ml of this suspension was placed in each well of a 24-well tray. Cells were maintained in a humidified 5% CO2/95% air atmosphere at 37° C. for 3-4 days. The culture medium consisted of DMEM containing 0.37% NaHCO3, 10% horse serum, 2.5% fetal bovine serum, 1% nonessential amino acids, 1% glutamine, 1% nystatin, and 0.1% gentamicin. Before testing compounds for their capacity to […] GH release, cells were washed twice 1.5 hr before and once more immediately before the start of the experiment with the above culture medium containing 25 mM Hepes (pH 7.4). Compounds were tested in quadruplicate by adding them in 1 ml of fresh medium to each well and incubating them at 37° C. for 15 minutes followed by centrifugation at 2000×g for 15 min to remove any cellular material. The supernatant fluid was assayed for GH by a double antibody radioimmunoassay."}},
  "note": "Entries after “also recorded” stand apart in the source; their conditions may differ.",
  "data": [
    {"compound": "CCCCCCCC(=O)OC[C@H](NC(=O)[C@H](CO)NC(=O)CN)C(=O)N[C@@H](Cc1ccccc1)C(=O)N[C@@H](CC(C)C)C(=O)N[C@@H](CO)C(=O)N1CCC[C@H]1C(=O)N[C@@H](CCC(=O)O)C(=O)N[C@@H](Cc1c[nH]cn1)C(=O)N[C@@H](CCC(N)=O)C(=O)N[C@@H](CCCNC(=N)N)C(=O)N[C@H](C(=O)N[C@@H](CCC(N)=O)C(=O)N[C@@H](CCC(N)=O)C(=O)N[C@@H](CCCNC(=N)N)C(=O)N[C@@H](CCCCN)C(=O)N[C@@H](CCC(=O)O)C(=O)N[C@@H](CO)C(=O)N[C@@H](CCCCN)C(=O)N[C@@H](CCCCN)C(=O)N1CCC[C@H]1C(=O)N1CCC[C@H]1C(=O)N[C@@H](C)C(=O)N[C@@H](CCCCN)C(=O)N[C@@H](CC(C)C)C(=O)N[C@@H](CCC(N)=O)C(=O)N1CCC[C@H]1C(=O)N[C@@H](CCCNC(=N)N)C(=O)O)C(C)C", "note": "[Ghrelin]", "values": [
      {"measurement": "effect on 4-hour food intake", "setting": "[1]; Agrp-/-, Npy-/- double knockout mice", "result": "no effect; also recorded: without effect"},
      {"measurement": "stimulation of 4-hour food intake", "setting": "[1]; wild-type control mice, ad libitum fed, relative to saline", "result": 120, "unit": "%"},
      {"measurement": "effect on 4-hour food intake", "setting": "[1]; wild-type mice, relative to saline", "result": "stimulated 4-hour food intake"},
      {"measurement": "EC50", "setting": "[2]", "result": 0.7, "unit": "nM"}
    ]}
  ]
}
